{"source": "patent EP2921486B1", "about": "“Compositions and methods for treating beta-amyloid related diseases” (American Life Science Pharmaceuticals, Inc., priority 2009, dated 2011)", "key": {"[1]": {"details": "healthy human volunteers, oral, about 5 mg/kg/day, single or continuous 1 week; cited from earlier work"}, "brain cathepsin B": {"system": "brain cathepsin B", "assay": "Brain cathepsin B activity after once-a-day oral gavage (fluorometric kit)", "format": "in vivo", "details": "guinea pigs, once-a-day oral administration", "excerpt": "(§1) Guinea Pigs. Guinea Pigs (Harley strain, average weight 400 g corresponding to animals about 6 weeks old) were obtained from Charles River (Wilmington, MA). The animals were given free access to standard chow and water before and during the experiment.\n(§2) Gavage Formulation: Delivering a drug by gavage offers the advantage of accurate dosing but is traumatic and thus only suitable for relatively short dosing periods. Gavage delivery was used for the guinea pig work. E64d was resuspended in DMSO at indicated concentrations (see Figures, and below) and guinea pigs were gavaged daily using a feeding tube. Vehicle control animals were provided DMSO alone.\n(§3) Guinea Pig Gavage Dosing: Guinea pigs were gavaged daily for one week. Guinea pigs were lightly anesthetized with isoflurane prior to gavaging. 250 µl of compound solution was gavaged daily per animal and animals were sacrificed 4 hrs after the last dosing.\nThe brain cathepsin B activity in guinea pigs was measured as follows: Cathepsin B activity was determined using a fluorometric assay kit from Abeam, Inc. (catalog ab65300; Cambridge, MA) as described by the manufacturer."}, "[2]": {"details": "high oral doses (500 mg/kg and 1 g/kg), cited from earlier work"}, "[3]": {"system": "brain Aβ40 and brain Aβ42", "details": "guinea pig, oral 10 mg/kg/day, 7 days"}, "brain Aβ(40) and Aβ(42)": {"system": "brain Aβ(40) and Aβ(42)", "details": "for Summary Aβ 40 Mean % Control / Summary Aβ 42 Mean % Control: 1 & 3 month feeding; for Aβ 40 Difference / Aβ 42 Difference: control minus treated; for Aβ 40 % Control / Aβ 42 % Control: per cent reduction in Aβ"}, "[4]": {"details": "rats, cited from earlier work"}, "[5]": {"details": "maximal intravenous or oral doses, rats; cited from earlier work"}, "brain BACE1": {"system": "brain BACE1", "assay": "Brain BACE1 activity after once-a-day oral gavage (fluorometric kit)", "format": "in vivo", "details": "guinea pigs, once-a-day oral administration", "excerpt": "as §1, §2, §3\nThe brain BRACE1 activity in guinea pigs was measured by Beta secretase activity was determined using a fluorometric assay kit from Abcam (ab65357) as described by the manufacturer."}, "[6]": {"details": "oral, dogs; cited from earlier work"}, "transgenic APPlon mice": {"system": "transgenic APPlon mice", "assay": "Morris water maze test, spatial memory deficit", "format": "in vivo", "details": "E64d-doped chow for 1 month or 3 months, either age group", "excerpt": "Figure 16 is not descriptive of the claimed invention. Figure 16 graphically illustrates data showing the effects of AB-007 (E64d, loxistatin)-doped chow on the spatial memory deficit that develops in transgenic APPlon (London APP) mice, see above description, and e.g. Hook, et al. (2008) supra. The Morris water maze test was used to measure the latency period, which is the time it takes an animal to swim to a submerged and not visible platform after having been previously trained as to the location of that platform. The longer the latency period, the poorer the spatial memory. Two groups of animals were evaluated, young and old mice."}, "[7]": {"details": "cited from earlier work"}, "[8]": {"details": "cited from earlier work", "remark": "listed apart in the source"}, "[9]": {"assay": "5-week stability test at 60°C", "format": "physicochemical", "details": "read-out: compound remaining"}, "Aβ(40) and Aβ(42)": {"system": "Aβ(40) and Aβ(42)", "assay": "Brain, CSF and plasma Aβ ELISA after once-a-day oral gavage for one week (Example 9)", "format": "in vivo", "details": "guinea pigs", "excerpt": "as §1, §2, §3"}, "[10]": {"details": "Old mice, 1 month feeding E64d doped chow"}, "[11]": {"details": "Old mice, 3 month feeding E64d doped chow"}, "[12]": {"details": "Young mice, 1 month feeding E64d doped chow"}, "[13]": {"details": "Young mice, 3 month feeding E64d doped chow"}}, "note": "Where two headings read alike, the source gives them in different places.", "data": [{"smiles": "CCOC(=O)[C@H]1O[C@@H]1C(=O)N[C@@H](CC(C)C)C(=O)NCCC(C)C", "note": "(relative stereo) [AB-007, (2S,3S)-trans-epoxysuccinyl-L-leucyl-amido-3-methylbutane ethyl ester]", "values": [{"measurement": "hematological tests, blood chemistry, urinalyses", "setting": "[1]", "result": "no changes"}, {"measurement": "pulse, blood pressure, body temperature, grip force, electrocardiogram, physician observations", "setting": "[1]", "result": "no change"}, {"measurement": "brain cathepsin B activity", "setting": "brain cathepsin B", "result": "dose response reduction"}, {"measurement": "effect on the cardiovascular system", "setting": "[2]", "result": "no effect"}, {"measurement": "effect on the central nervous system", "setting": "[2]; sedation, mild inhibition of pentetrazol-induced seizure", "result": "depress the central nervous system"}, {"measurement": "reduction of brain Aβ40 relative to vehicle treated controls", "setting": "[3]", "result": 42, "unit": "%"}, {"measurement": "reduction of brain Aβ42 relative to vehicle treated controls", "setting": "[3]", "result": 42, "unit": "%"}, {"measurement": "Summary Aβ 40 Mean % Control", "setting": "brain Aβ(40) and Aβ(42); All Ages", "result": 64, "unit": "%"}, {"measurement": "Summary Aβ 42 Mean % Control", "setting": "brain Aβ(40) and Aβ(42); All Ages", "result": 52, "unit": "%"}, {"measurement": "Summary Aβ 40 Mean % Control", "setting": "brain Aβ(40) and Aβ(42); Old mice", "result": 65, "unit": "%"}, {"measurement": "Summary Aβ 42 Mean % Control", "setting": "brain Aβ(40) and Aβ(42); Old mice", "result": 42, "unit": "%"}, {"measurement": "Aβ 40 Mean treated", "setting": "brain Aβ(40) and Aβ(42); [10]", "result": 87.1}, {"measurement": "Aβ 42 Mean treated", "setting": "brain Aβ(40) and Aβ(42); [10]", "result": 31.9}, {"measurement": "Aβ 40 Difference", "setting": "brain Aβ(40) and Aβ(42); Old mice, 1 month feeding", "result": 142.9}, {"measurement": "Aβ 42 Difference", "setting": "brain Aβ(40) and Aβ(42); Old mice, 1 month feeding", "result": 26.6}, {"measurement": "Aβ 40 % Control", "setting": "brain Aβ(40) and Aβ(42); Old mice, 1 month feeding", "result": 62, "unit": "%"}, {"measurement": "Aβ 42 % Control", "setting": "brain Aβ(40) and Aβ(42); Old mice, 1 month feeding", "result": 45, "unit": "%"}, {"measurement": "Aβ 40 Mean treated", "setting": "brain Aβ(40) and Aβ(42); [11]", "result": 91.2}, {"measurement": "Aβ 42 Mean treated", "setting": "brain Aβ(40) and Aβ(42); [11]", "result": 61.3}, {"measurement": "Aβ 40 Difference", "setting": "brain Aβ(40) and Aβ(42); Old mice, 3 month feeding", "result": 195.3}, {"measurement": "Aβ 42 Difference", "setting": "brain Aβ(40) and Aβ(42); Old mice, 3 month feeding", "result": 38.5}, {"measurement": "Aβ 40 % Control", "setting": "brain Aβ(40) and Aβ(42); Old mice, 3 month feeding", "result": 68, "unit": "%"}, {"measurement": "Aβ 42 % Control", "setting": "brain Aβ(40) and Aβ(42); Old mice, 3 month feeding", "result": 39, "unit": "%"}, {"measurement": "Summary Aβ 40 Mean % Control", "setting": "brain Aβ(40) and Aβ(42); Young mice", "result": 60, "unit": "%"}, {"measurement": "Summary Aβ 42 Mean % Control", "setting": "brain Aβ(40) and Aβ(42); Young mice", "result": 62, "unit": "%"}, {"measurement": "Aβ 40 Mean treated", "setting": "brain Aβ(40) and Aβ(42); [12]", "result": 47.7}, {"measurement": "Aβ 42 Mean treated", "setting": "brain Aβ(40) and Aβ(42); [12]", "result": 5.5}, {"measurement": "Aβ 40 Difference", "setting": "brain Aβ(40) and Aβ(42); Young mice, 1 month feeding", "result": 47.5}, {"measurement": "Aβ 42 Difference", "setting": "brain Aβ(40) and Aβ(42); Young mice, 1 month feeding", "result": 6}, {"measurement": "Aβ 40 % Control", "setting": "brain Aβ(40) and Aβ(42); Young mice, 1 month feeding", "result": 50, "unit": "%"}, {"measurement": "Aβ 42 % Control", "setting": "brain Aβ(40) and Aβ(42); Young mice, 1 month feeding", "result": 52, "unit": "%"}, {"measurement": "Aβ 40 Mean treated", "setting": "brain Aβ(40) and Aβ(42); [13]", "result": 38.7}, {"measurement": "Aβ 42 Mean treated", "setting": "brain Aβ(40) and Aβ(42); [13]", "result": 4.5}, {"measurement": "Aβ 40 Difference", "setting": "brain Aβ(40) and Aβ(42); Young mice, 3 month feeding", "result": 87.4}, {"measurement": "Aβ 42 Difference", "setting": "brain Aβ(40) and Aβ(42); Young mice, 3 month feeding", "result": 11.7}, {"measurement": "Aβ 40 % Control", "setting": "brain Aβ(40) and Aβ(42); Young mice, 3 month feeding", "result": 69, "unit": "%"}, {"measurement": "Aβ 42 % Control", "setting": "brain Aβ(40) and Aβ(42); Young mice, 3 month feeding", "result": 72, "unit": "%"}, {"measurement": "LD50", "setting": "[4]; oral", "result": "over 10,000 mg/kg"}, {"measurement": "hepatic injury", "setting": "[4]; does not occur in other species", "result": "hepatic injury seen in rats"}, {"measurement": "influence on vision or hearing", "setting": "[5]", "result": "do not influence"}, {"measurement": "brain BACE1 activity", "setting": "brain BACE1", "result": "increase"}, {"measurement": "LD50", "setting": "[6]", "result": "> 5,000 mg/kg"}, {"measurement": "mean latency period relative to age-matched controls", "setting": "transgenic APPlon mice", "result": "significantly reduced"}, {"measurement": "oral dose absorbed", "setting": "[7]; primary absorption site small intestine", "result": "about 60%"}, {"measurement": "concentration in all other organs, including the brain", "setting": "[7]; radioactive AB-007", "result": "corresponding to the plasma concentration or concentrations lower than plasma"}, {"measurement": "kidneys concentration relative to plasma concentration", "setting": "[7]; radioactive AB-007", "result": "~12", "unit": "times"}, {"measurement": "liver concentration relative to plasma concentration", "setting": "[7]; radioactive AB-007", "result": "about 25 times"}, {"measurement": "time of maximum tissue concentration after administration", "setting": "[7]; radioactive AB-007", "result": 0.5, "unit": "h"}, {"measurement": "drug accumulation", "setting": "[8]; humans", "result": "No drug accumulation"}, {"measurement": "total urinary excretion rate", "setting": "[8]; humans", "result": "about 30%"}, {"measurement": "conversion in the gut to E64c (loxistatin acid)", "setting": "[8]; oral", "result": "rapidly and completely converted"}, {"measurement": "remaining at 840 h", "setting": "[9]", "result": 99, "unit": "%"}, {"measurement": "CSF Aβ", "setting": "Aβ(40) and Aβ(42)", "result": "dose response reduction"}, {"measurement": "CSF Aβ(42)", "setting": "Aβ(40) and Aβ(42)", "result": "dose response reduction"}, {"measurement": "brain Aβ(40)", "setting": "Aβ(40) and Aβ(42)", "result": "dose response reduction"}, {"measurement": "brain Aβ(42)", "setting": "Aβ(40) and Aβ(42)", "result": "dose response reduction"}, {"measurement": "plasma Aβ(40)", "setting": "Aβ(40) and Aβ(42)", "result": "dose response reduction"}, {"measurement": "plasma Aβ(42)", "setting": "Aβ(40) and Aβ(42)", "result": "dose response reduction"}]}, {"smiles": "[2H]C([2H])([2H])C([2H])(CCNC(=O)[C@H](CC(C)C)NC(=O)[C@H]1O[C@@H]1C(=O)OCC)C([2H])([2H])[2H]", "note": "[Compound E64d7]", "values": [{"measurement": "brain cathepsin B activity", "setting": "brain cathepsin B", "result": "dose response reduction"}, {"measurement": "brain BACE1 activity", "setting": "brain BACE1", "result": "increase"}, {"measurement": "CSF Aβ", "setting": "Aβ(40) and Aβ(42)", "result": "dose response reduction"}, {"measurement": "CSF Aβ(42)", "setting": "Aβ(40) and Aβ(42)", "result": "dose response reduction"}, {"measurement": "brain Aβ(40)", "setting": "Aβ(40) and Aβ(42)", "result": "dose response reduction"}, {"measurement": "brain Aβ(42)", "setting": "Aβ(40) and Aβ(42)", "result": "dose response reduction"}, {"measurement": "plasma Aβ(40)", "setting": "Aβ(40) and Aβ(42)", "result": "dose response reduction"}, {"measurement": "plasma Aβ(42)", "setting": "Aβ(40) and Aβ(42)", "result": "dose response reduction"}]}]}
